Data set [1] addresses T1, NTMT1 (Homo sapiens, UniProt Q9BV86).
T1 construct: made in house
T1 sequence (Q9BV86 1-223): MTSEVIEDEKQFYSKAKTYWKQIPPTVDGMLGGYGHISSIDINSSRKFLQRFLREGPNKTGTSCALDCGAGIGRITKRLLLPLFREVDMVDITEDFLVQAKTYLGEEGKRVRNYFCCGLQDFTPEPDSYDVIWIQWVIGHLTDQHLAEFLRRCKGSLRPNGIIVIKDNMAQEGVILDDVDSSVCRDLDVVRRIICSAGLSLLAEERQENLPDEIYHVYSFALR
As to the kind of experiment: SAHH-coupled fluorescence assay of NTMT1 inhibition. The data set is classed as biochemical.

A short description of data set [2]: in vitro. The note with it: human.
Method: Cell viability assay. HCT116 cells were seeded as 5,000 cells/well on 96-well plates in the
presence of 1x PBS or DC541 at different concentrations for 24, 48, or 72 hours. Cell viability
was assessed using 0.2 mg/ml resazurin solutions prepared from resazurin sodium salt (Acros
OrganicsTM, AC418900050) dissolved in sterile 1 x PBS. Then, the cells were incubated with
10 µl resazurin solution (10% of cell culture volume) for four hours at 37 °C. The fluorescence
Cell viability was calculated as 100% × (fluorescence of treated cells – fluorescence of
background controls) / (fluorescence of 1x PBS controls – fluorescence of background
Data set [3] has as its system cellular α-N-terminal methylation level in HCT116 cells. As to the kind of experiment: Cellular N-terminal methylation level, Western blot with anti-me3-SPK antibody. It counts as cell-based. The note with it: Homo sapiens, HCT-116, cellular N-terminal methylation inhibition, n = 2. As to the method:
Next, we investigated the effects of all peptidomimetic inhibitors with GI50 > 100 µM and IC50 < 1 µM on the cellular α-N-terminal methylation level in HCT116 cells (Table 2). Then, we examined the top three cell-potent peptidomimetic inhibitors 1d–f on the dose-response of inhibition of cellular N-terminal methylation levels. […] As the biochemical IC50 value of GD562 was about three-fold higher than DC541, we proposed that the improved cellular inhibition of GD562 may be attributed to its increased permeability with higher cLogP than DC541.
Figure 5 Inhibition of cellular N-terminal methylation by peptidomimetic inhibitors in HCT116 cells. Representative Western blot results of the effects of GD562 (A), GD564 (B), and GD573 (C) on the cellular methylation level. Image quantification was performed using ImageJ software (NIH). […] All experiments were performed in duplicate (n = 2). […]
Cellular N-methylation level.
The gel was transferred to a
system. Image quantification was done using ImageJ software (NIH). All bands were compared
OrganicsTM, AC418900050) dissolved in sterile 1 x PBS. […]

A short description of data set [4]: Parallel Artificial Membrane Permeability Assay (PAMPA).

Results on one molecule are retold here after publication PMC8874984, “Improved Cell-Potent and Selective Peptidomimetic Inhibitors of Protein N-Terminal Methyltransferase 1” (Molecules, 2022).

Molecules are shown by their SMILES. A value given as a limit tells only on which side of the number the result lay.

As to `NCCCCC(NC(=O)C1CCCN1C(=O)Cc1cccc2ccccc12)C(=O)NCCCc1ccccc1` (stereo not drawn) [Compound 1e], the half-maximal inhibitory concentration (IC50) in data set [1] is 650 ± 10 nM; in data set [3], approximately 100 µM. The “Expt. ΔGbind ± σ” value in data set [1] (estimated from the IC50 values in Table 1) was -8.44 ± 0.01 kcal/mol. Also, the “IC50/IC50 (DC541)” value in data set [1] (ratio of NTMT1 IC50 to that of DC541) was determined as 1.9. Further, the GI50 in data set [2] is more than 300 µM. For the same molecule, the Papp in data set [4] came out at 0.17 ± 0.08 ×10⁻⁶ cm/s.
